Data published in US4948796A, “Piperazine derivative or its salt, process for producing the same and pharmaceutical composition comprising the same as active ingredient” (Toyama Chemical Co., Ltd., priority 1988, dated 1990).
Where a name gives a salt, the structure may show the parent alone.

Columns and labels:
Assay type in all cases: in vivo
male ICR mice [1] = assay: Protective Effect against Hypobaric Hypoxia; conditions: Mus musculus, po, 2 h, 80 mg/kg orally, one or two hours before 210 mmHg, vehicle group (5% dimethylsulfoxide, 5% Cremophor EL) = 100, read-out: Survival time (ratio)
Protocol: (§1) Next, the pharmacological activity of typical compounds of this invention is explained in detail below. The compounds of this invention shown in Table 1 where subjected to the following test in the form of a hydrochloride to obtain the results shown in each test item.
2. Protective Effect against Hypobaric Hypoxia
Each mouse was given 80 mg/kg of test compound orally one or two hours before the mice were placed under the hypobaric condition, and the survival time was measured.
The test compounds were dissolved in a physiological saline solution. However, the test compounds Nos. 7 and 23 were dissolved in an aqueous solution containing 5% of dimethylsulfoxide and 5% of Cremophor EL, and the control compound A (flunarizine) was dissolved in a 1.5% aqueous tartaric acid solution and then they were administered. Each study was carried out using 20 mice per group.
The protective effect against hypobaric hypoxide was determined as a ratio of the survival time of the group to which the test compounds was administered to that of the group to which an aqueous solution containing 5% of dimethylsulfoxide and 5% of Cremophor EL, the latter being indicated as 100.

[2] = tested on: vertebral blood flow (VBF); assay: Vertebral Blood Flow Increasing Activity (anesthetized dogs, intravenous); conditions: anesthetized mongrel dogs; for ED50: Canis lupus familiaris, iv, increase of VBF by 1 mg/kg papaverine hydrochloride regarded as 100%, 2-5 per group, test compounds as hydrochloride; for Cerebral vessel selectivity: ratio of percent increase of VBF to FBF (femoral blood flow), i.v.
Protocol: Next, the pharmacological activity of typical compounds of this invention is explained in detail below.
- 1. Vertebral Blood Flow Increasing Activity
Mongrel dogs of both sexes weighing from 12 to 20 kg were anesthetized with sodium pentobarbital.
Vertebral blood flow (VBF) and femoral blood flow (FBF) were measured by an electromagnetic flowmeter (MFV-2100 and MFV-3100, Nihon Kohden).
Test compound solutions were injected intravenously in a volume of 0.2 ml/kg.
Also, the ratio of percent increase of VBF to FBF elicited by test compounds were indicated as an index of cerebral vessel selectivity.
The test compounds were dissolved in a physiological saline solution.
Thereafter, the resulting solution was diluted with a physiological saline solution to the desired concentration. Each study was carried out using 2-5 dogs per group.

male ICR mice [3] = assay: Acute Toxicity; conditions: intravenous, 25 mg/kg, three male ICR mice per group
Protocol: as §1
A test compounds were intravenously administered to a group of three male ICR mice, weighing 20 to 26 g. The mortality was determined.
The test compounds were dissolved in a physiological saline solution. However, the test compound Nos. 7, 23 and 24 were dissolved in an aqueous solution containing 10% of dimethylsulfoxide and 10% of Cremophor EL and flunarizine was dissolved in 0.1M aqueous lactic acid solution.

Q: For Clc1ccc(/C=C/CN2CCN(C3c4ccccc4CCc4ncccc43)CC2)cc1Cl (stereo not shown) [compound 12], which response vs control in vivo at 80 mg/kg (male ICR mice [1]) is on record?
A: The response vs control in vivo at 80 mg/kg was 129%.

Q: And the ED50 [2]?
A: The ED50 was 0.3 mg/kg.

Q: What about the Cerebral vessel selectivity [2] of the same compound?
A: Its Cerebral vessel selectivity is 5.6.

Q: What about the mortality (male ICR mice [3]) of the same compound?
A: The mortality was “no death case was found”.

Q: For COc1ccc(/C=C/CN2CCN(C3c4ccccc4CCc4ncccc43)CC2)cc1 (stereo not shown) [compound 5], which ED50 [2] is on record?
A: Its ED50 is 0.3 mg/kg.

Q: What about the Cerebral vessel selectivity [2] of the same compound?
A: The Cerebral vessel selectivity was 8.8.

Q: C(=C\c1ccc2c(c1)OCO2)/CN1CCN(C2c3ccccc3CCc3ncccc32)CC1 (stereo not shown) [compound 9] was tested. Which response vs control in vivo at 80 mg/kg (male ICR mice [1]) did it give?
A: The response vs control in vivo at 80 mg/kg was 155%.

Q: What about the ED50 [2] of the same compound?
A: The ED50 was 0.45 mg/kg.

Q: What about the Cerebral vessel selectivity [2] of the same compound?
A: Its Cerebral vessel selectivity is 6.9.

Q: COc1cc(/C=C/CN2CCN(C3c4ccccc4CCc4ncccc43)CC2)ccc1Oc1cccnc1 (stereo not shown) [compound 15] was tested. Which ED50 [2] did it give?
A: The ED50 was 0.18 mg/kg.

Q: And the Cerebral vessel selectivity [2]?
A: The Cerebral vessel selectivity was 4.6.

Q: For Clc1cccc(/C=C/CN2CCN(C3c4ccccc4CCc4ncccc43)CC2)c1 (stereo not shown) [compound 11], which response vs control in vivo at 80 mg/kg (male ICR mice [1]) is on record?
A: The response vs control in vivo at 80 mg/kg was 146%.

Q: What about the mortality (male ICR mice [3]) of the same compound?
A: Its mortality is “no death case was found”.

Q: Which results are given for O=[N+]([O-])c1ccc2c(c1)C(N1CCN(C/C=C/c3ccccc3)CC1)c1ccccc1CC2 (stereo not shown) [compound 23]?
A: response vs control in vivo at 80 mg/kg (male ICR mice [1]): 205%; ED50 [2]: 0.32 mg/kg; Cerebral vessel selectivity [2]: 5.0; mortality (male ICR mice [3]): no death case was found

Q: With Fc1ccc(C(c2ccc(F)cc2)N2CCN(C/C=C/c3ccccc3)CC2)cc1 [Control compd. A, Flunarizine dihydrochloride, reference compound] as the compound, how does the response vs control in vivo at 80 mg/kg (male ICR mice [1]) read?
A: The response vs control in vivo at 80 mg/kg was 61%.

Q: And the ED50 [2]?
A: Its ED50 is 0.28 mg/kg.

Q: What about the Cerebral vessel selectivity [2] of the same compound?
A: Its Cerebral vessel selectivity is 2.1.

Q: What about the mortality (male ICR mice [3]) of the same compound?
A: The mortality was “no death case was found”.

Q: Which ED50 [2] does the source give for COc1ccc(/C=C/CN2CCN(C3c4ccccc4CCc4ncccc43)CC2)cc1Oc1cccnc1 (stereo not shown) [compound 16] here?
A: The ED50 was 0.15 mg/kg.

Q: What about the Cerebral vessel selectivity [2] of the same compound?
A: The Cerebral vessel selectivity was 3.6.

Q: COc1ccc(/C=C/CN2CCN(C3c4ccccc4CCc4ncccc43)CC2)cc1Oc1ccccc1 (stereo not shown) [compound 7] was tested. Which response vs control in vivo at 80 mg/kg (male ICR mice [1]) did it give?
A: Its response vs control in vivo at 80 mg/kg is 158%.

Q: And the ED50 [2]?
A: Its ED50 is 0.11 mg/kg.

Q: What about the Cerebral vessel selectivity [2] of the same compound?
A: The Cerebral vessel selectivity was 16.7.

Q: What about the mortality (male ICR mice [3]) of the same compound?
A: Its mortality is “no death case was found”.

Q: How did the response vs control in vivo at 80 mg/kg (male ICR mice [1]) turn out when C(=C\c1ccc2sccc2c1)/CN1CCN(C2c3ccccc3CCc3ncccc32)CC1 (stereo not shown) [compound 19] was run?
A: The response vs control in vivo at 80 mg/kg was 138%.

Q: What about the ED50 [2] of the same compound?
A: Its ED50 is 0.32 mg/kg.

Q: What about the Cerebral vessel selectivity [2] of the same compound?
A: Its Cerebral vessel selectivity is 4.1.

Q: What about the mortality (male ICR mice [3]) of the same compound?
A: Its mortality is “no death case was found”.

Q: What does the source list for COc1ccccc1/C=C/CN1CCN(C2c3ccccc3CCc3ccc([N+](=O)[O-])cc32)CC1 (stereo not shown) [compound 24]?
A: ED50 [2]: 0.35 mg/kg; Cerebral vessel selectivity [2]: 14.3; mortality (male ICR mice [3]): no death case was found

Q: How did the ED50 [2] turn out when O=[N+]([O-])c1ccc2c(c1)C(N1CCN(C/C=C/c3ccccc3)CC1)c1ccccc1SC2 (stereo not shown) [compound 25] was run?
A: The ED50 was 0.28 mg/kg.

Q: What about the Cerebral vessel selectivity [2] of the same compound?
A: Its Cerebral vessel selectivity is 10.6.

Q: Which response vs control in vivo at 80 mg/kg (male ICR mice [1]) does the source give for COc1ccc(/C=C/CN2CCN(C3c4ccccc4CCc4ncccc43)CC2)cc1OC (stereo not shown) [compound 3] here?
A: The response vs control in vivo at 80 mg/kg was 136%.

Q: What about the ED50 [2] of the same compound?
A: The ED50 was 0.3 mg/kg.

Q: And the Cerebral vessel selectivity [2]?
A: The Cerebral vessel selectivity was 5.0.

Q: What about the mortality (male ICR mice [3]) of the same compound?
A: Its mortality is “no death case was found”.

Q: C(=C\c1ccccc1)/CN1CCN(C2c3ccccc3CCc3cnccc32)CC1 (stereo not shown) [compound 2] was tested. Which ED50 [2] did it give?
A: Its ED50 is 0.34 mg/kg.

Q: And the Cerebral vessel selectivity [2]?
A: The Cerebral vessel selectivity was 8.8.

Q: Which results are given for COc1ccccc1/C=C/CN1CCN(C2c3ccccc3CCc3ncccc32)CC1 (stereo not shown) [compound 4]?
A: ED50 [2]: 0.22 mg/kg; Cerebral vessel selectivity [2]: 3.0

Q: Which ED50 [2] does the source give for C1=Cc2ncccc2C(N2CCN(C/C=C/c3ccccc3)CC2)c2ccccc21 (stereo not shown) [compound 22] here?
A: The ED50 was 0.15 mg/kg.

Q: What about the Cerebral vessel selectivity [2] of the same compound?
A: The Cerebral vessel selectivity was 5.4.

Q: What does the source list for Clc1cccc(/C=C/CN2CCN(C3c4ccccc4CCc4ncccc43)CC2)c1Cl (stereo not shown) [compound 18]?
A: ED50 [2]: 0.3 mg/kg; Cerebral vessel selectivity [2]: 10.4; mortality (male ICR mice [3]): no death case was found

Q: Which results are given for O=[N+]([O-])c1cccc(/C=C/CN2CCN(C3c4ccccc4CCc4ncccc43)CC2)c1 (stereo not shown) [compound 14]?
A: response vs control in vivo at 80 mg/kg (male ICR mice [1]): 139%; ED50 [2]: 0.3 mg/kg; Cerebral vessel selectivity [2]: 3.8; mortality (male ICR mice [3]): no death case was found

Q: With Fc1ccc(/C=C/CN2CCN(C3c4ccccc4CCc4ncccc43)CC2)cc1F (stereo not shown) [compound 13] as the compound, how does the response vs control in vivo at 80 mg/kg (male ICR mice [1]) read?
A: Its response vs control in vivo at 80 mg/kg is 148%.

Q: What about the mortality (male ICR mice [3]) of the same compound?
A: Its mortality is “no death case was found”.

Q: Which results are given for COc1ccc(/C=C/CN2CCN(C3c4ccccc4CCc4ncccc43)CC2)cc1N (stereo not shown) [compound 17]?
A: response vs control in vivo at 80 mg/kg (male ICR mice [1]): 143%; mortality (male ICR mice [3]): no death case was found

Q: For COc1ccc(/C=C/CN2CCN(C3c4ccccc4CCc4ncccc43)CC2)cc1[N+](=O)[O-] (stereo not shown) [compound 10], which ED50 [2] is on record?
A: Its ED50 is 0.17 mg/kg.

Q: And the Cerebral vessel selectivity [2]?
A: Its Cerebral vessel selectivity is 9.1.

Q: What about the mortality (male ICR mice [3]) of the same compound?
A: Its mortality is “no death case was found”.

Q: What does the source list for O=[N+]([O-])c1cccc2c(/C=C/CN3CCN(C4c5ccccc5CCc5ncccc54)CC3)cccc12 (stereo not shown) [compound 21]?
A: ED50 [2]: 0.33 mg/kg; Cerebral vessel selectivity [2]: 3.4; mortality (male ICR mice [3]): no death case was found

Q: Which response vs control in vivo at 80 mg/kg (male ICR mice [1]) does the source give for C(=C\c1cccc2ccsc12)/CN1CCN(C2c3ccccc3CCc3ncccc32)CC1 (stereo not shown) [compound 20] here?
A: Its response vs control in vivo at 80 mg/kg is 142%.

Q: What about the ED50 [2] of the same compound?
A: The ED50 was 0.36 mg/kg.

Q: And the Cerebral vessel selectivity [2]?
A: The Cerebral vessel selectivity was 4.1.

Q: And the mortality (male ICR mice [3])?
A: Its mortality is “no death case was found”.

Q: For O=[N+]([O-])c1ccc(/C=C/CN2CCN(C3c4ccccc4CCc4ncccc43)CC2)cc1 (stereo not shown) [compound 6], which response vs control in vivo at 80 mg/kg (male ICR mice [1]) is on record?
A: The response vs control in vivo at 80 mg/kg was 135%.

Q: What about the mortality (male ICR mice [3]) of the same compound?
A: The mortality was “no death case was found”.

Q: COc1ccc(/C=C/CN2CCN(C3c4ccccc4CCc4ncccc43)CC2)c(OC)c1OC (stereo not shown) [compound 8] was tested. Which ED50 [2] did it give?
A: The ED50 was 0.14 mg/kg.

Q: And the Cerebral vessel selectivity [2]?
A: Its Cerebral vessel selectivity is 4.5.

Q: What about the mortality (male ICR mice [3]) of the same compound?
A: Its mortality is “no death case was found”.

Q: Which response vs control in vivo at 80 mg/kg (male ICR mice [1]) does the source give for C(=C\c1ccccc1)/CN1CCN(C2c3ccccc3CCc3ncccc32)CC1 (stereo not shown) [compound 1] here?
A: Its response vs control in vivo at 80 mg/kg is 180%.

Q: And the mortality (male ICR mice [3])?
A: Its mortality is “no death case was found”.

Q: With O=[N+]([O-])c1cccc(/C=C/CN2CCN(C3c4ccccc4CCc4ccc([N+](=O)[O-])cc43)CC2)c1 (stereo not shown) [compound 26] as the compound, how does the ED50 [2] read?
A: Its ED50 is 0.28 mg/kg.

Q: What about the Cerebral vessel selectivity [2] of the same compound?
A: The Cerebral vessel selectivity was 4.4.
